# Test results from patent publication US4689326A, “Process for controlling hyperlipidemia” (Research Corporation, priority 1985, dated 1987).
# Legend:
# Chylomicrons = assay: Lipoprotein fractions in Rats, Example 11: chylomicrons; format: in vivo, Sprague Dawley male rats; conditions: oral 20 mg/kg/day, fourteen days, ± SD
# Method: (§1) A group of six Sprague Dawley male rats were treated with 20 mg/kg/day of 3,4,5,6-dibenzohomopiperidine. The treatment was applied orally. An equal number of Sprague Dawley male rats, having approximately the same weight, were utilized as an untreated control. At the end of fourteen days the control and treated rats were sacrificed. Blood was collected from the abdominal aorta and lipoprotein fractions were obtained by the method of Hatch and Lees [Adv. Lipid Rees., 6, 1 (1968)] and Havel et al. [J. Clin Invest., 34, 1345 (1955)]. Each of the fractions were analyzed for cholesterol, triglycerides, neutral lipids, phospholipids and protein levels.
# VLDL = assay: Lipoprotein fractions in Rats, Example 11: VLDL; format: in vivo, Sprague Dawley male rats; conditions: oral 20 mg/kg/day, fourteen days, ± SD
# Method: as §1
# [1] = test system: Phosphatidate Phosphohydrolase; assay: In vivo enzyme activity, liver of treated mice: phosphatidate phosphohydrolase; design: species or system CF1 male mice; conditions: 16 days, ± SD
# Method: (§2) In vitro enzymatic studies were undertaken using 10% homogenates of CF1 male mouse liver with […] of compound 3,4,5,6-dibenzohomopiperidine. In addition, in vivo enzymatic studies were performed, again using 10% liver homogenates (prepared in 0.25 M sucrose plus 0.001 M (ethylenedinitrilo)-tetraacetic acid, ph 7.25 from CF1 male mice obtained after administering 3,4,5,6-dibenzohomopiperidine for 16 days at a concentration ranging from 10 to 60 mg/kg/day, intraperitoneally.
# (§3) The following enzyme activities were determined by following standard literature procedures: acetyl coenzyme synthetase; adenosine triphosphate dependent citrate lyase; mitochondrial citrate exchange; cholesterol/7 hydroxylase; 3-hydroxy-3-methyl-glutaryl coenzyme A reductase; acetyl coenzyme A carboxylase activity; fatty acid synthetase activity; sn-glycerol-3-phosphate acyl transferase activity; phosphatidate phosphohydrolase activity; cholesterol acyl transferase; and heparin activated hepatic lypoprotein lipase. Protein was determined for all enzyme assays by the Lowry et al. technique (J. Biol. Chem, 193, 265 (1951)).
# HDL = assay: Lipoprotein fractions in Rats, Example 11: HDL; format: in vivo, Sprague Dawley male rats; conditions: oral 20 mg/kg/day, fourteen days, ± SD
# Method: as §1
# [2] = test system: Phosphatidate Phosphohyrolase; assay: In vitro enzyme activity, liver homogenate: phosphatidate phosphohydrolase; format: biochemical, CF1 male mouse; conditions: ± SD, N = 6
# Method: as §2, §3
# [3] = target: T1, Acyl CoA Cholesterol Acyl (Mus musculus, UniProt O88908); assay: In vitro enzyme activity, liver homogenate: acyl CoA cholesterol acyl transferase; format: biochemical, CF1 male mouse; conditions: ± SD, N = 6, read-out: Percent Control, in vitro enzyme activity
# T1 construct: 10% homogenates of CF1 male mouse liver; from tissue; host or cells: CF1 male mouse liver, 10% homogenate
# T1 sequence (O88908 1-525): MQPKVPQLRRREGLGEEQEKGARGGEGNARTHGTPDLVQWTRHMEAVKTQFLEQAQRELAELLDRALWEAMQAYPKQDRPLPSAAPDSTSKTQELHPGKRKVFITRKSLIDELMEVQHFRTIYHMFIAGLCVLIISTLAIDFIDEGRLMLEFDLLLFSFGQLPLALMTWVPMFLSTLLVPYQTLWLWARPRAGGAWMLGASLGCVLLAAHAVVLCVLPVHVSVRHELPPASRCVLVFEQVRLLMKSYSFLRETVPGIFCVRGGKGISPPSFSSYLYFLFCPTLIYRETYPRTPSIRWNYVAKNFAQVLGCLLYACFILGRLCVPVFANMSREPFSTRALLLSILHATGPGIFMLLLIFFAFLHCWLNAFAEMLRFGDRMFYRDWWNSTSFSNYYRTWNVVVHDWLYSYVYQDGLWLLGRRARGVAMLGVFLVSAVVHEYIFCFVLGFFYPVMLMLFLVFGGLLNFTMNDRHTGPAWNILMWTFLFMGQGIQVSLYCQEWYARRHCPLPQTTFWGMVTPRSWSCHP
# Method: as §2, §3
# ^3 H-cholesterol = assay: Effect on 3H Cholesterol Distribution in Rats, Example 12; format: in vivo, Sprague Dawley rats; conditions: oral 20 mg/kg/day
# Method: A group of 6 Sprague Dawley rats, each weighing approximately 300 g, were treated with 3,4,5,6-dibenzohomopiperdine applied orally at a dosage of 20 mg/kg per day for 4 days. Six similar Sprague Dawley rats were untreated and served as a control. On the 13th day, 10 μCi of ^3 H-cholesterol was administered orally. The rats were sacrificed and tissue samples were combusted or plated on filter paper, dried and digested for 24 hours in hyamine hydroxide at 40° C. and counted. Results of this test are reported as disintegrations per minute (DPM) per total organ.
# In Table 10, the average organ weight and feces of the treated and untreated rats are reported. The table indicates the concentration of ^3 H-cholesterol in the organs and feces of the treated and untreated (control) rats.
# Small Intestine = assay: Lipid Extraction Studies in Rats, Example 11: small intestine; format: in vivo, Sprague Dawley male rats; conditions: oral 20 mg/kg/day, fourteen days, ± SD
# Acetyl CoA Carboxylase = target: T2, Acetyl CoA Carboxylase (Mus musculus, UniProt Q5SWU9); assay: In vitro enzyme activity, liver homogenate: acetyl CoA carboxylase; format: biochemical, CF1 male mouse; conditions: ± SD, N = 6, read-out: Percent Control, in vitro enzyme activity
# T2 construct: 10% homogenates of CF1 male mouse liver; from tissue; host or cells: CF1 male mouse liver, 10% homogenate
# Method: as §2, §3
smiles,measurement,setting,value
"c1ccc2c(c1)CNCc1ccccc1-2 [Compound 3, 3,4,5,6-dibenzohomopiperidine]","Cholesterol, concentration as a function of control",Chylomicrons,77 ± 6%
same,"Neutral Lipids, concentration as a function of control",Chylomicrons,69 ± 7%
same,"Phospholipids, concentration as a function of control",Chylomicrons,65 ± 5%
same,"Protein, concentration as a function of control",Chylomicrons,106 ± 6%
same,"Triglycerides, concentration as a function of control",Chylomicrons,69 ± 6%
same,"Cholesterol, concentration as a function of control",VLDL,40 ± 4%
same,"Neutral Lipids, concentration as a function of control",VLDL,63 ± 6%
same,"Phospholipids, concentration as a function of control",VLDL,95 ± 7%
same,"Protein, concentration as a function of control",VLDL,96 ± 8%
same,"Triglycerides, concentration as a function of control",VLDL,69 ± 5%
same,"Percent Control, in vivo enzyme activity",[1]; 10 mg/kg/day ip,51 ± 4%
same,"Percent Control, in vivo enzyme activity",[1]; 20 mg/kg/day ip,47 ± 9%
same,"Percent Control, in vivo enzyme activity",[1]; 40 mg/kg/day ip,81 ± 6%
same,"Percent Control, in vivo enzyme activity",[1]; 60 mg/kg/day ip,100 ± 6%
same,"Cholesterol, concentration as a function of control",HDL,106 ± 5%
same,"Neutral Lipids, concentration as a function of control",HDL,59 ± 5%
same,"Phospholipids, concentration as a function of control",HDL,64 ± 3%
same,"Protein, concentration as a function of control",HDL,106 ± 7%
same,"Triglycerides, concentration as a function of control",HDL,40 ± 2%
same,"Percent Control, in vitro enzyme activity",[2]; 50 μM,45 ± 4%
same,"Percent Control, in vitro enzyme activity",[2]; 100 μM,44 ± 8%
same,"Percent Control, in vitro enzyme activity",[2]; 200 μM,50 ± 6%
same,remaining activity at 50 µM,[3]; 50 μM,60 ± 6%
same,remaining activity at 100 µM,[3]; 100 μM,59 ± 5%
same,remaining activity at 200 µM,[3]; 200 μM,3 ± 1%
same,"3H-cholesterol, Treated % Recovery",^3 H-cholesterol; brain,0.162%
same,"3H-cholesterol, Treated DPM per total organ",^3 H-cholesterol; brain,"9,216 DPM"
same,"3H-cholesterol, Treated % Recovery",^3 H-cholesterol; chyme,11.739%
same,"3H-cholesterol, Treated DPM",^3 H-cholesterol; chyme,"667,840 DPM"
same,"3H-cholesterol, Treated % Recovery",^3 H-cholesterol; feces,14.462%
same,"3H-cholesterol, Treated DPM",^3 H-cholesterol; feces,"822,719 DPM"
same,"3H-cholesterol, Treated % Recovery",^3 H-cholesterol; heart,0.452%
same,"3H-cholesterol, Treated DPM per total organ",^3 H-cholesterol; heart,"25,692 DPM"
same,"3H-cholesterol, Treated % Recovery",^3 H-cholesterol; kidney,0.652%
same,"3H-cholesterol, Treated DPM per total organ",^3 H-cholesterol; kidney,"37,096 DPM"
same,"3H-cholesterol, Treated % Recovery",^3 H-cholesterol; large intestine,3.757%
same,"3H-cholesterol, Treated DPM per total organ",^3 H-cholesterol; large intestine,"213,777 DPM"
same,"3H-cholesterol, Treated % Recovery",^3 H-cholesterol; liver,23.615%
same,"3H-cholesterol, Treated DPM per total organ",^3 H-cholesterol; liver,"1,343,450 DPM"
same,"3H-cholesterol, Treated % Recovery",^3 H-cholesterol; lung,2.183%
same,"3H-cholesterol, Treated DPM per total organ",^3 H-cholesterol; lung,"124,180 DPM"
same,"3H-cholesterol, Treated DPM",^3 H-cholesterol; plasma,"26,018 DPM"
same,"3H-cholesterol, Treated % Recovery",^3 H-cholesterol; small intestine,38.525%
same,"3H-cholesterol, Treated DPM per total organ",^3 H-cholesterol; small intestine,"2,191,623 DPM"
same,"3H-cholesterol, Treated % Recovery",^3 H-cholesterol; spleen,1.806%
same,"3H-cholesterol, Treated DPM per total organ",^3 H-cholesterol; spleen,"102,723 DPM"
same,"3H-cholesterol, Treated % Recovery",^3 H-cholesterol; stomach,2.189%
same,"3H-cholesterol, Treated DPM per total organ",^3 H-cholesterol; stomach,"124,552 DPM"
same,"Cholesterol, concentration as a function of control",Small Intestine,130 ± 6%
same,"Mg Lipid Wt, concentration as a function of control",Small Intestine,143 ± 5%
same,"Neutral Lipids, concentration as a function of control",Small Intestine,149 ± 6%
same,"Phospholipids, concentration as a function of control",Small Intestine,119 ± 6%
same,"Protein, concentration as a function of control",Small Intestine,118 ± 7%
same,"Triglycerides, concentration as a function of control",Small Intestine,130 ± 6%
same,remaining activity at 50 µM,Acetyl CoA Carboxylase; 50 μM,84 ± 6%
same,remaining activity at 100 µM,Acetyl CoA Carboxylase; 100 μM,100 ± 7%
same,remaining activity at 200 µM,Acetyl CoA Carboxylase; 200 μM,99 ± 5%
